{
  "source": "patent US11680054B2",
  "about": "“Bronchodilating hetero-linked amides” (Arcede Pharma AB, priority 2018, dated 2023)",
  "key": {"[1]": {"assay": "Solubility in phosphate buffer (pH 7.4)", "format": "physicochemical", "details": "aqueous buffer, thermodynamic from solid; phosphate buffer pH 7.4, agitated 20 hours at 37° C.", "description": "The solubilities of 1-(5,8-Dichloro-6,7-dihydroxy-3,4-dihydroisoquinolin-2(1H)-yl)-2-(6-(trifluoromethyl)pyridin-3-ylthio)ethenone (example 1) and the known compound 1-(5,8-Dichloro-6,7-dihydroxy-3,4-dihydroisoquinolin-2(1H)-yl)-2-(6-(trifluoromethyl)pyridine-3-yloxy)ethanone in phosphate buffer (pH 7.4) were determined.\nBriefly, 1 mg of the study compounds were weighted into glass vials (two replicates). 2 ml of pH 7.4 phosphate buffer was added into the vials and vials were then agitated (1300 rpm) 20 hours at 37° C. Samples were filtrated using 0.45 μm PVDA syringe filters before analysis. 10 μg/ml and 500 μg/ml standard solutions in acetonitrile:ultra-pure water were prepared using 10 mM DMSO-stock solution. Samples and standards were analyzed from glass vials. The samples were analyzed using UPLC/PDA immediately after preparation. A Waters Acquity ultra high-performance liquid chromatographic (UPLC) system with autosampler, vacuum degasser, photo-diode-array detector (Acquity PDA) and column oven was used."}, "male Sprague Dawley rats": {"test_system": "male Sprague Dawley rats", "assay": "Carbamylcholine-induced bronchospasm in anaesthetised rats (Konzett-Rossler method)", "format": "in vivo", "details": "rat; for Bronchodilatating effect on carbamylcholine chloride induced bronchoconstriction: intra-tracheal, administered at 6 mM, smaller increase in pulmonary resistance compared to vehicle; for Total pulmonary resistance increase from baseline post carbamylcholine chloride challenge, Average: single intra-tracheal nebulization of 100 μl at 6 mM, 30 min before carbamylcholine chloride 275 μg/kg iv", "description": "The bronchocondilatator effect of example 1 and (2E)-1-(5,8-dichloro-3,4-dihydro-6,7-dihydroxy-2(1H)-isoquinolinyl)-3-[6-(trifluoromethyl)-3-pyridinyl]-2-propen-1-one was evaluated using the Konzett-Rossler method (cf. Konzett H, Rössler R (1940) Versuchsanordung zu Untersuchungen an der Bronchialmuskulatur. Naunyn-Schmiedeberg's Arch Exp Path Pharmakol 192:71-74) in the anaesthetised rat following single intra-tracheal administration.\nThe study involved male Sprague Dawley rats, weighing between 291.1 g and 347.7 g on the day of the test.\nAnimals were put on to a water-only fast the day prior to the test. On the day of the test, animals were anaesthetised using sodium pentobarbital at a dose of 60 mg/kg by intraperitoneal route in a volume of 1 mL/kg, then at 2 mg/mL by the intravenous route at a rate of 10 mL/kg/hour throughout the test. The trachea was quickly cannulated to enable artificial respiration. The animals were ventilated with an air flow of approximately 1 mL per 100 g at a rate of 54 cycles/minute. Total pulmonary resistance was measured continuously using a pressure transducer, fitted to a side branch of the tracheal cannula. Arterial blood pressure and heart rate were obtained by placing the telemetric pressure sensor of telemetric transmitter HD-S11 in the carotid artery. A jugular vein was cannulated for the intravenous administration of carbamylcholine chloride. The temperature of the animal was kept between 36.0° C. and 39.3° C. using an electric blanket. At the end of the surgical phase, animals were pre-medicated with a solution of pancuronium bromide at 0.2 mg/mL by the intravenous route at a rate of 10 mL/kg/hour throughout the test to avoid spontaneous respiration. Ventilatory flow was adjusted in such way as to obtain a baseline stabilisation of the pulmonary pressure resistance between 6.5 to 10.5 mmHg (i.e. approximately between 10 to 15% of maximum pulmonary resistance). About 15 minutes after the end of the surgical phase and stabilisation of the pulmonary pressure signal, the animals were dosed with: • 1. Example 1; • 2. (2E)-1-(5,8-dichloro-3,4-dihydro-6,7-dihydroxy-2(1H)-isoquinolinyl)-3-[6-(trifluoromethyl)-3-pyridinyl]-2-propen-1-one; or • 3. Their vehicle\nby intra-tracheal nebulization in a volume of 100 μl using a Microsprayer aerosolizer (Penncentury).\nThirty minutes later, carbamylcholine chloride at 275 μg/kg was administered using an infusion pump in a volume of 3.33 mL/kg over a 5-minute period. Total pulmonary resistance, mean, systolic and diastolic arterial blood pressure and heart rate were continuously recorded over the test.\nExample 1 was formulated by dissolving 5.5 mg in 2015 μl vehicle (200 mM (2-hydroxypropyl)-β-cyclodextrin, 49 mM L-lysine, 6.2 mM L-ascorbic acid in MilliQ water). […]"}, "[2]": {"test_system": "human peripheral blood mononuclear cell (PBMC)", "assay": "Human PBMC in vitro model, LPS induced MCP-1 and LTB-4 levels", "format": "cell-based", "details": "for LTB-4 reduction (%) / MCP-1 reduction (%): LPS 0.1 μg/ml, 24 h", "description": "Cryopreserved PBMC's (SeraCare, #72001) are thawed, washed with culture media (RPMI-1640 from Invitrogen, #61870-036+10% heat inactivated fetal bovine serum from Invitrogen, #10082-147+100 U/ml penicillin+100 μg/ml streptomycin) and tested for viability using Trypan blue (PBMC viability=96%). Cells are then resuspended to 1×10^6 cells/ml in culture media and 0.5 ml plated into 24 well culture plates (5×10^5 cells/well) before incubation for 30 minutes at 37° C. with 5% C02 prior to addition of a compound to be assessed (10 μM) or dexamethasone (1 μM). One hour thereafter, LPS (0.1 μg/ml, Salmonella abortus equi, Sigma, #L1887) are added and the cells are incubated for another 24 h before collection of the cell culture supernatants, which are assayed for the presence of MCP-1 and LTB4.\nMCP-1 levels are quantified employing a Luminex-based assay according the manufacturer's instructions. Data are collected using a Luminex 100 (Luminex Corporation, Austin, Tex.). Standard curves are generated using a 5-parameter logistic curve fitting equation weighted by 1/y (StarStation V 2.0; Applied Cytometry Systems, Sacramento, Calif.). Each sample reading are interpolated from the appropriate standard curve. Calculated concentrations are multiplied by the appropriate dilution factor when necessary.\nLTB4 levels are quantified by ELISA following the manufacturer's instructions. Absorbance readings are detected using a ThermoMax microplate reader (Molecular Devices). Standard curves are generated using a 4-parameter logistic curve fitting equation (SoftMax Pro 4.7.1; Molecular Devices). Each sample reading are interpolated from the appropriate standard curve. Duplicate interpolated sample values are averaged and standard deviations are calculated. Calculated concentrations are multiplied by the appropriate dilution factor.\nThe reults in lowering MCP-1 and LTB-4 levels compared to vehicle (negative control) and 1 μM dexamethasone (positive control) are given below."}, "human bronchiols": {"test_system": "human bronchiols", "assay": "Leukotriene D4 induced contraction of human bronchus preparations, in vitro model", "details": "pre-treatment with compound at 10 μM; Leukotriene D4 (10 nM) induced contraction of human bronchiols", "description": "(§1) The usefulness of the compounds, as defined in the preceding embodiments, in treating, pretreating, revoking, mitigating, alleviating and/or preventing a condition of the respiratory apparatus characterized by bronchoconstriction, were evaluated in a complex and relevant in vitro model. The in vitro model was in accordance with the in vitro model disclosed in US 2006-0040254 A1 and Skogvall, S., Berglund, M., Dalence-Guzmán, M. F., Svensson, K., Jönsson, P., Persson, C. G. A and Sterner, O., Pulmonary Pharmacology and Therapeutics, vol 20:3, 2007, p. 273-280. All references disclosed herein are hereby incorporated in their entirety by reference.\nIn short, lung tissue was obtained from patients undergoing lobectomia or pulmectomia due to lung carcinoma. From the bronchus of this tissue were rectangular oblong preparations obtained. The contraction induced by inflammatory mediators, such as Leukotriene D4, histamine, prostaglandin D2 or acetylcholine, in the presence and absence of the compound to be evaluated, were compared.\nas §1, with “embodiments herein,” for “preceding embodiments,”, “treating,” for “treating, pretreating,”, “model, which is described” for “model. The in vitro model was in accordance with the in vitro model disclosed”\nThe remaining contraction, after pre-treatment with various compound examples at a concentration of 10 μM, of human bronchiols after Leukotriene D4 (10 nM) induced contraction according to the in vitro method described herein above are tabulated below."}, "[3]": {"details": "dexamethasone 1 μM (positive control)"}, "[4]": {"details": "compound 10 μM, compared to vehicle"}},
  "data": [
    {"compound": "O=C(COc1ccc(C(F)(F)F)nc1)N1CCc2c(Cl)c(O)c(O)c(Cl)c2C1", "note": "[1-(5,8-Dichloro-6,7-dihydroxy-3,4-dihydroisoquinolin-2(1H)-yl)-2-(6-(trifluoromethyl)pyridine-3-yloxy)ethanone, reference compound]", "values": [
      {"measurement": "solubility at 20 h", "setting": "[1]", "value": 76.7, "unit": "µg/mL"}
    ]},
    {"compound": "O=C(/C=C/c1ccc(C(F)(F)F)nc1)N1CCc2c(Cl)c(O)c(O)c(Cl)c2C1", "note": "[(2E)-1-(5,8-dichloro-3,4-dihydro-6,7-dihydroxy-2(1H)-isoquinolinyl)-3-[6-(trifluoromethyl)-3-pyridinyl]-2-propen-1-one, reference compound]", "values": [
      {"measurement": "Bronchodilatating effect on carbamylcholine chloride induced bronchoconstriction", "setting": "male Sprague Dawley rats", "value": "had a bronchodilatating effect"},
      {"measurement": "Total pulmonary resistance increase from baseline post carbamylcholine chloride challenge, Average", "setting": "male Sprague Dawley rats", "value": 2.86, "unit": "mmHg"}
    ]},
    {"compound": "C[C@@H]1C[C@H]2[C@@H]3CCC4=CC(=O)C=C[C@]4(C)[C@@]3(F)[C@@H](O)C[C@]2(C)[C@@]1(O)C(=O)CO", "note": "[Dexamethasone, dexamethasone, reference compound]", "values": [
      {"measurement": "LTB-4 reduction (%)", "setting": "[2]; [3]", "value": 23.4, "unit": "%"},
      {"measurement": "MCP-1 reduction (%)", "setting": "[2]; [3]", "value": 15.5, "unit": "%"}
    ]},
    {"compound": "O=C(CSc1ccc(C(F)(F)F)nc1)N1CCc2c(Cl)c(O)c(O)c(Cl)c2C1", "note": "[Example 1, 1-(5,8-Dichloro-6,7-dihydroxy-3,4-dihydroisoquinolin-2(1H)-yl)-2-(6-(trifluoromethyl)pyridin-3-ylthio)ethanone]", "values": [
      {"measurement": "solubility at 20 h", "setting": "[1]", "value": 16.6, "unit": "µg/mL"},
      {"measurement": "Remaining contraction (%)", "setting": "human bronchiols", "value": 7, "unit": "%"},
      {"measurement": "Reduction of inflammatory markers (MCP-1 and LTB-4)", "setting": "[2]; 10 μM, LPS stimulated PBMC", "value": "significant reduction"},
      {"measurement": "LTB-4 reduction (%)", "setting": "[2]; [4]", "value": 20.7, "unit": "%"},
      {"measurement": "MCP-1 reduction (%)", "setting": "[2]; [4]", "value": 70.8, "unit": "%"},
      {"measurement": "Bronchodilatating effect on carbamylcholine chloride induced bronchoconstriction", "setting": "male Sprague Dawley rats", "value": "had a bronchodilatating effect"},
      {"measurement": "Total pulmonary resistance increase from baseline post carbamylcholine chloride challenge, Average", "setting": "male Sprague Dawley rats", "value": 2.33, "unit": "mmHg"}
    ]},
    {"compound": "Cc1nc(C(F)(F)F)ccc1SCC(=O)N1CCc2c(Cl)c(O)c(O)c(Cl)c2C1", "note": "[Example 2, 1-(5,8-Dichloro-6,7-dihydroxy-3,4-dihydroisoquinolin-2(1H)-yl)-2-(2-methyl-6-(trifluoromethyl)pyridin-3-ylthio)ethanone]", "values": [
      {"measurement": "Remaining contraction (%)", "setting": "human bronchiols", "value": 14, "unit": "%"}
    ]},
    {"compound": "Cc1cc(C(F)(F)F)cc(SCC(=O)N2CCc3c(Cl)c(O)c(O)c(Cl)c3C2)n1", "note": "[Example 3, 1-(5,8-Dichloro-6,7-dihydroxy-3,4-dihydroisoquinolin-2(1H)-yl)-2-(6-methyl-4-(trifluoromethyl)pyridin-2-ylthio)ethanone]", "values": [
      {"measurement": "Remaining contraction (%)", "setting": "human bronchiols", "value": 16, "unit": "%"}
    ]},
    {"compound": "O=C(C1CCCN(c2ccc(F)cn2)C1)N1CCc2c(Cl)c(O)c(O)c(Cl)c2C1", "note": "(stereo not drawn) [Example 4, (5,8-Dichloro-6,7-dihydroxy-3,4-dihydroisoquinolin-2(1H)-yl)(1-(5-fluoropyridin-2-yl)piperidin-3-yl)methanone]", "values": [
      {"measurement": "Remaining contraction (%)", "setting": "human bronchiols", "value": 51, "unit": "%"}
    ]}
  ]
}
